Literature values in article PMC11768433 (Viruses, 2024).
Where two headings read alike, the source gives them in different places.

What was measured:
[1] = test system: Human parainfluenza viruse 3(HPIV 3); design: method as in Ref.28344321; conditions: HPIV 3 infection, Vero cells; ref Ref.28344321
Vero cells [2] = test system: Vero cells; design: method as in Ref.28344321; conditions: ref Ref.28344321
P4-CCR5 cells = test system: P4-CCR5 cells; design: method as in Ref.17448989; conditions: up to 1000 µM, ref Ref.17448989
Vero cells [3] = test system: Vero cells; design: method as in Ref.35216177; conditions: ref Ref.35216177
HSV-2 = test system: HSV-2; design: method as in Ref.35216177; conditions: HSV-2 replication, Vero cells; ref Ref.35216177
HSV-1 = test system: HSV-1; design: method as in Ref.35216177; conditions: HSV-1 replication, Vero cells; ref Ref.35216177
P4 cells = test system: P4 cells; design: method as in Ref.12054767; conditions: MTT assay, peptide concentrations higher than 100 μM, ref Ref.12054767
SARS-CoV-2 = test system: SARS-CoV-2; design: method as in Ref.35216177; conditions: SARS-CoV-2 replication, Vero cells; ref Ref.35216177
HCoV-OC43 = test system: HCoV-OC43; design: method as in Ref.35216177; conditions: HCoV-OC43 replication, Vero cells; ref Ref.35216177
MT-4 cell = test system: MT-4 cell; design: method as in Ref.30089693; conditions: ref Ref.30089693
TZM-bl cell = test system: TZM-bl cell; design: method as in Ref.30089693; conditions: ref Ref.30089693
[4] = test system: influenza virus(H1N1,VR-1894); design: method as in Ref.35216177; conditions: influenza H1N1 VR-1894 replication, MDKC cells; ref Ref.35216177
HCoV-229E = test system: HCoV-229E; design: method as in Ref.35216177; conditions: HCoV-229E replication, Vero cells; ref Ref.35216177
H9 cells = test system: H9 cells; design: method as in Ref.12480936; conditions: up to 50 μM, ref Ref.12480936
Vero cells [5] = test system: Vero cells; design: method as in Ref.18572274; conditions: up to 500 μM, ref Ref.18572274
[6] = test system: Human endocervical cells End1/E6E7; design: method as in Ref.26026377; conditions: ref Ref.26026377
[7] = test system: Feline immunodeficiency virus (FIV); conditions: FIV replication, CrFK cells, at 16 µg/ml; ref Ref.8661378

VALDPIDIAnti-SIVLNKAKSDLEESKEWIRRSNGKLDSIGSGSGX [DRAVPe01793]
IC90 [1]: 0.0007 ± 7e-06 µM | CC50 (Vero cells [2]): 4.5 µM

LEAIPMSIPPEVKFNKPFVF [DRAVPe00192]
cytotoxicity (P4-CCR5 cells): [Ref.17448989]No cytotoxicity against P4-CCR5 cells up tp 1000 µM.

FVQWFSKFLGRIL [DRAVPe00376, DRAVP database entry, TL peptide]
CC50 (Vero cells [3]): 19.61 µM | IC90 (HSV-2): 16 µM | IC90 (HSV-1): 15.7 µM

YQLAIRMIYKNI [DRAVPe00098, DRAVP database peptide, target HIV-1 integrase]
decrease of cell viability (P4 cells): ~5%

FVPWFSKFlPRIL [DRAVPe00378, DRAVP database entry, TL peptide]
IC90 (SARS-CoV-2): 14 µM | IC90 (HCoV-OC43): 24.1 µM | CC50 (Vero cells [3]): 56.52 µM | IC90 (HSV-2): 19.2 µM | IC90 (HSV-1): 18.8 µM

LEAIPCSIPPCFAFNKPFVF [DRAVPe00222]
cytotoxicity (P4-CCR5 cells): [Ref.17448989]No cytotoxicity against P4-CCR5 cells up tp 1000 µM.

IEELIKKSEEQQKKNEEELKKLEX [DRAVPe00656]
CC50 (MT-4 cell): 164.47 µM | CC50 (TZM-bl cell): 193.63 µM | CC50 (PBMC; PBMC, ref Ref.30089693): 46.43 µM

YQLLIRPIYKNI [DRAVPe00110, DRAVP database peptide, target HIV-1 integrase]
decrease of cell viability (P4 cells): ~5%

CGGFVPWFSKFlXRIL [DRAVPe00392, DRAVP database entry, TL peptide]
IC90 (SARS-CoV-2): 10.2 µM | CC50 (Vero cells [3]): [Ref.35216177]Vero cells:CC50>100.00 μM | IC90 [4]: 9.9 µM | IC90 (HSV-1): 8.21 µM

LEAIPCSIPPCVFFNKPFVF [DRAVPe00221]
cytotoxicity (P4-CCR5 cells): [Ref.17448989]No cytotoxicity against P4-CCR5 cells up tp 1000 µM.

LEAIPMGIPpEVXFNKPFVF [DRAVPe00228]
cytotoxicity (P4-CCR5 cells): [Ref.17448989]No cytotoxicity against P4-CCR5 cells up tp 1000 µM.

FVPWFSKFlxRIL [DRAVPe00382, DRAVP database entry, TL peptide]
IC90 (SARS-CoV-2): 17.4 µM | IC90 (HCoV-OC43): 24.7 µM | CC50 (Vero cells [3]): 32.16 µM | IC90 (HSV-2): 11.9 µM | IC90 (HSV-1): 12.8 µM | IC90 (HCoV-229E): > 50 µM

FVPWFSKFlwRIL [DRAVPe00386, DRAVP database entry, TL peptide]
IC90 (SARS-CoV-2): 14.8 µM | IC90 (HCoV-OC43): 17.4 µM | CC50 (Vero cells [3]): 24.12 µM | IC90 (HSV-2): 9.76 µM | IC90 (HSV-1): 7.89 µM | IC90 (HCoV-229E): 50 µM

LEAIPMSIPPEFLFGKPFVF [DRAVPe00223]
cytotoxicity (P4-CCR5 cells): [Ref.17448989]No cytotoxicity against P4-CCR5 cells up tp 1000 µM.

LPLPAPSFHRTT [DRAVPe00128, DRAVP database peptide, target HIV-1 Vif proteins]
cytotoxicity (H9 cells): [Ref.12480936]No significant cytotoxicity on H9 cells up to 50 μM.

FVPWFSKFlXRILGGC [DRAVPe00390, DRAVP database entry, TL peptide]
IC90 (SARS-CoV-2): 50 µM | CC50 (Vero cells [3]): [Ref.35216177]Vero cells:CC50>100.00 μM | IC90 [4]: 49.9 µM | IC90 (HSV-1): 48 µM

CFVPWFSKFlXRIL [DRAVPe00391, DRAVP database entry, TL peptide]
IC90 (SARS-CoV-2): 1.89 µM | CC50 (Vero cells [3]): [Ref.35216177]Vero cells:CC50>100.00 μM | IC90 [4]: 5.89 µM | IC90 (HSV-1): 2.19 µM

AAHLIDALYAEFLGGRVLTTPVVHRALFYASAVLRQPFLAGVPSA [DRAVPe01422]
cytotoxicity (Vero cells [5]): [Ref.18572274]No cytotoxicity against Vero cells up to 500 μM.

GLFSVLGAVAKHVLPHVVPVIAEKL [DRAVPe00355, DRAVP database peptide, target HIV]
concentration at 50% cell death [6]: 10 µM

YTSLIEELIKKSEEQQKKNEEELKKLEX [DRAVPe00783]
CC50 (MT-4 cell): 138.37 µM | CC50 (TZM-bl cell): 106.4 µM | CC50 (PBMC): 40.01 µM

VALDPIDIAnti-SIVLNKAKSDLEESKEWIRRSNGKLDSIGSGSGC [DRAVPe01791]
IC90 [1]: 0.28 ± 0.247 µM | CC50 (Vero cells [2]): [Ref.28344321]Vero cells: CC50>10000 nM.

WEQKIEELLKKAEEQQKKNEEELKKLEX [DRAVPe00785]
CC50 (TZM-bl cell): 112.9 µM | CC50 (PBMC; PBMC, ref Ref.30089693): 114.8 µM

FVPWFSKFlXRILC [DRAVPe00389, DRAVP database entry, TL peptide]
IC90 (SARS-CoV-2): 12 µM | CC50 (Vero cells [3]): [Ref.35216177]Vero cells:CC50>100.00 μM | IC90 [4]: 10 µM | IC90 (HSV-1): 11.1 µM

KPKQIKPPLPSV [DRAVPe00130, DRAVP database peptide, target HIV-1 Vif proteins]
cytotoxicity (H9 cells): [Ref.12480936]No significant cytotoxicity on H9 cells up to 50 μM.

YQLLIRMIYANI [DRAVPe00104, DRAVP database peptide, target HIV-1 integrase]
decrease of cell viability (P4 cells): ~5%

FVPWFSKFlpRIL [DRAVPe00379, DRAVP database entry, TL peptide]
CC50 (Vero cells [3]): [Ref.35216177]Vero cells:CC50>100 μM

YQALIRMIYKNI [DRAVPe00097, DRAVP database peptide, target HIV-1 integrase]
decrease of cell viability (P4 cells): ~5%

LEANIEELLKKAEEQQKKNEEELKKLEX [DRAVPe00784]
CC50 (TZM-bl cell): 434.03 µM | CC50 (PBMC; PBMC, ref Ref.30089693): 46.83 µM

PACQDFLGAMIHLKAKTNISIR [DRAVPe00840, DRAVP database peptide, target FIV]
inhibition [7]: 28%

LEAIPCSIPpCFLFNKPFVF [DRAVPe00227]
cytotoxicity (P4-CCR5 cells): [Ref.17448989]No cytotoxicity against P4-CCR5 cells up tp 1000 µM.

SNQGGSPLPRSV [DRAVPe00127, DRAVP database peptide, target HIV-1 Vif proteins]
cytotoxicity (H9 cells): [Ref.12480936]No significant cytotoxicity on H9 cells up to 50 μM.

FVPWFSKFlWRIL [DRAVPe00385, DRAVP database entry, TL peptide]
IC90 (SARS-CoV-2): 27.7 µM | IC90 (HCoV-OC43): 24.2 µM | CC50 (Vero cells [3]): 35.47 µM | IC90 (HSV-2): 12.5 µM | IC90 (HSV-1): 8.25 µM | IC90 (HCoV-229E): 50 µM

LFYLVPGPGH [DRAVPe00094, DRAVP database peptide, target HIV-1 integrase]
decrease of cell viability (P4 cells): ~5%

GLFKVLGSVAKHLLPHVAPVIAEKL [DRAVPe00356, DRAVP database peptide, target HIV]
concentration at 50% cell death [6]: 12.5 µM

LSELDDRADALQAGASQFETSAAKLKRKYWWKN [DRAVPe00111, DRAVP database peptide, target HIV-1 integrase]
decrease of cell viability (P4 cells): ~5%

YLDRVDTWLQGKINISLCLT [DRAVPe00846, DRAVP database peptide, target FIV]
inhibition [7]: 9%

LKAKTNISIREGPTLGNWAR [DRAVPe00841, DRAVP database peptide, target FIV]
inhibition [7]: 24%

FVPWFSKFlXRIL [DRAVPe00380, DRAVP database entry, TL peptide]
IC90 (SARS-CoV-2): 25 µM | IC90 (HCoV-OC43): 27.7 µM | CC50 (Vero cells [3]): 60.90 µM | IC90 (HSV-2): 19 µM | IC90 (HSV-1): 15.9 µM | IC90 (HCoV-229E): > 50 µM

IEELLKKAEEQQKKNEEELKKLEX [DRAVPe00660]
CC50 (TZM-bl cell): 256.23 µM | CC50 (PBMC; PBMC, ref Ref.30089693): 49.95 ± 2.97 µM

KVINPEPIVEPFMSKPFALF [DRAVPe00230]
cytotoxicity (P4-CCR5 cells): [Ref.17448989]No cytotoxicity against P4-CCR5 cells up tp 1000 µM.

YTSLIHSLIEESQNQQEKNEQELLELDX [DRAVPe00782]
CC50 (MT-4 cell): 366.3 µM | CC50 (TZM-bl cell): 800.8 µM | CC50 (PBMC; PBMC, ref Ref.30089693): 212.6 µM

QLLIRMIYKNI [DRAVPe00109, DRAVP database peptide, target HIV-1 integrase]
decrease of cell viability (P4 cells): ~5%

FVPWFSKFlXRIL [DRAVPe00396, DRAVP database entry, TL peptide]
IC90 (SARS-CoV-2): 6.96 µM | CC50 (Vero cells [3]): [Ref.35216177]Vero cells:CC50>100.00 μM | IC90 [4]: 7.11 µM | IC90 (HSV-1): 4.96 µM

QLLIRMIYKNILFYLVPGPGHGAEPERRNIKYL [DRAVPe00090, DRAVP database peptide, target HIV-1 integrase]
decrease of cell viability (P4 cells): ~5%

FVPWFSKFlGRIL [DRAVPe00377, DRAVP database entry, TL peptide]
IC90 (SARS-CoV-2): 12.1 µM | IC90 (HCoV-OC43): 15 µM | CC50 (Vero cells [3]): 42.18 µM | IC90 (HSV-2): 16.7 µM | IC90 (HSV-1): 18.7 µM | IC90 (HCoV-229E): 30.1 µM

XGSGSGVALDPIDIAnti-SIVLNKAKSDLEESKEWIRRSNGKLDSI [DRAVPe01796]
IC90 [1]: 0.0001 ± 1e-07 µM | CC50 (Vero cells [2]): [Ref.28344321]Vero cells: CC50>10000 nM.

GLLSVLGSVVKHVIPHVVPVIAEHL [DRAVPe00360, DRAVP database peptide, target HIV]
concentration at 50% cell death [6]: 12.5 µM
